Measured values from ChEMBL document CHEMBL1201862, “PubChem BioAssay data set” (2004).
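Method: 48-hour compound exposure of cells in 96-well plates, five concentrations, linear interpolation of endpoints. GI50 is the concentration that inhibits growth by half.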 Activity calls are given as the source filed them. No stated cut-off is given here; in the data, active = GI50 up to about 1.1 µM and inactive = higher.

How the values were obtained:
Test in all cases: inhibition of tumour cell growth, NCI panel, 48 h
LOX IMVI = tested on: LOX IMVI
OVCAR-8 = tested on: OVCAR-8
U-251 = tested on: U-251
KM12 = tested on: KM12
COLO 205 = tested on: COLO 205
OVCAR-4 = tested on: OVCAR-4
HL-60 = tested on: HL-60
M14 = tested on: M14
HCT-116 = tested on: HCT-116
786-0 = tested on: 786-0
UO-31 = tested on: UO-31
EKVX = tested on: EKVX
NCI-H23 = tested on: NCI-H23
SNB-19 = tested on: SNB-19
Hs-578T = tested on: Hs-578T
MCF7 = tested on: MCF7
NCI/ADR-RES = tested on: NCI/ADR-RES
NCI-H522 = tested on: NCI-H522
BT-549 = tested on: BT-549

Measured: GI50

NC(=O)c1ncn(CCN2CCN(C(=O)NCCCCCCNC(=O)N3CCN(CCn4cnc(C(N)=O)c4N)CC3)CC2)c1N
inactive: LOX IMVI > 100 µM | OVCAR-8 > 100 µM | U-251 > 100 µM | KM12 > 100 µM | COLO 205 > 100 µM | OVCAR-4 > 100 µM | HL-60 > 100 µM | M14 > 100 µM | HCT-116 > 100 µM | 786-0 > 100 µM | UO-31 > 100 µM | EKVX > 100 µM | NCI-H23 > 100 µM | SNB-19 > 100 µM

COc1ccc(CC2C3=C(CCCC3)CCN2C)cc1 (stereo not drawn)
inactive: LOX IMVI > 100 µM | OVCAR-8 > 100 µM | Hs-578T 77.6 µM | U-251 > 100 µM | KM12 > 100 µM | COLO 205 > 100 µM | OVCAR-4 > 100 µM | HL-60 29.4 µM | M14 44.4 µM | HCT-116 58.2 µM | MCF7 > 100 µM | 786-0 > 100 µM | UO-31 58.3 µM | EKVX > 100 µM | NCI-H23 > 100 µM | NCI/ADR-RES > 100 µM | SNB-19 > 100 µM

C=CCOC(=O)CCCCCCCCCCCCCCCOC(=O)C1=C(CCC[C@@H](C)O[Si](C)(C)C(C)(C)C)NC(=O)N2[C@H](CC3(CC/C=C\[C@H](CC)O[Si](C(C)C)(C(C)C)C(C)C)OCCO3)CC[C@H]12
inactive: U-251 > 100 µM | KM12 > 100 µM | COLO 205 > 100 µM | OVCAR-4 > 100 µM | M14 > 100 µM | HCT-116 > 100 µM | NCI-H522 > 100 µM | MCF7 > 100 µM | BT-549 > 100 µM | 786-0 > 100 µM | UO-31 > 100 µM | EKVX > 100 µM | NCI-H23 > 100 µM | NCI/ADR-RES > 100 µM | SNB-19 > 100 µM

O=C(/C=C/c1cccc([N+](=O)[O-])c1)N1CCN(CCOC(c2ccccc2)c2ccccc2)CC1
inactive: LOX IMVI 22.9 µM | OVCAR-8 30.6 µM | KM12 26.9 µM | COLO 205 21.7 µM | OVCAR-4 29.9 µM | M14 32.9 µM | HCT-116 18.6 µM | NCI-H522 24.5 µM | MCF7 27.9 µM | BT-549 27.4 µM | 786-0 38.2 µM | UO-31 33.1 µM | EKVX > 100 µM | NCI-H23 43.6 µM | NCI/ADR-RES 48.6 µM | SNB-19 > 100 µM

COC(=O)C(Cc1c[nH]c2ccccc12)NC(=O)C(Cc1c[nH]cn1)NC(=O)C1CCC(=O)N1C(=O)OCc1ccccc1 (stereo not drawn)
inactive: OVCAR-8 > 100 µM | Hs-578T > 100 µM | U-251 > 100 µM | KM12 > 100 µM | COLO 205 > 100 µM | HL-60 > 100 µM | M14 > 100 µM | HCT-116 > 100 µM | MCF7 > 100 µM | BT-549 > 100 µM | 786-0 > 100 µM | UO-31 > 100 µM | EKVX > 100 µM | NCI-H23 > 100 µM | SNB-19 > 100 µM

O=C(O)CCC(NC(=O)c1ccccc1)C(=O)O (stereo not drawn)
inactive: LOX IMVI > 100 µM | OVCAR-8 > 100 µM | U-251 > 100 µM | KM12 > 100 µM | COLO 205 52.1 µM | OVCAR-4 > 100 µM | M14 > 100 µM | HCT-116 58.7 µM | NCI-H522 > 100 µM | 786-0 > 100 µM | UO-31 > 100 µM | EKVX > 100 µM | NCI-H23 > 100 µM | SNB-19 > 100 µM

Sc1nnc(Cc2ccc(Cl)cc2)[nH]1
inactive: LOX IMVI 38.1 µM | OVCAR-8 46.6 µM | Hs-578T 16.4 µM | U-251 58.1 µM | KM12 43.2 µM | COLO 205 48 µM | OVCAR-4 71.9 µM | M14 > 100 µM | HCT-116 51.4 µM | MCF7 51.9 µM | BT-549 > 100 µM | 786-0 61.4 µM | UO-31 32.4 µM | EKVX 47.1 µM | NCI-H23 26.6 µM | NCI/ADR-RES 42.1 µM | SNB-19 71 µM

N#CCc1cccc(CC#N)c1Br
inactive: LOX IMVI > 100 µM | OVCAR-8 > 100 µM | U-251 > 100 µM | KM12 > 100 µM | COLO 205 > 100 µM | OVCAR-4 > 100 µM | HL-60 > 100 µM | M14 > 100 µM | HCT-116 > 100 µM | NCI-H522 > 100 µM | 786-0 > 100 µM | UO-31 > 100 µM | EKVX > 100 µM | NCI-H23 > 100 µM | SNB-19 > 100 µM
